The values that follow are results of earlier work, collected in patent publication US20070098649A1, “Method and composition for controlling oral pathogens” (priority 2004, published 2007).

One data set relates to mice. The following applies: 15 mg/kg i.p.; cited from earlier work.
The subject of a further data set is albino rats. The conditions noted are these: i.p. 50 mg/kg; cited from earlier work.
The subject of data set [1] is rats. The following applies: single intraintestinal injection 10 mg/kg into the duodenum; cited from earlier work.
For data set [2], the system named is rats. The following applies: intravenous 0.1-6.0 mg/kg; cited from earlier work.
The test system of data set [3] is dogs. The following applies: intravenous 0.1-6.0 mg/kg; cited from earlier work.
The subject of another data set is cats. The following applies: intravenous 0.1-6.0 mg/kg; cited from earlier work.
A further data set deals with S. pyogenes. The following applies: at sub-MIC levels; cited from earlier work.
Data set [4] has as its system dogs. The conditions noted are these: dog, in vivo; cited from earlier work.

Where a name gives a salt, the structure may show the parent alone.

As to `COc1ccc2cc3[n+](cc2c1OC)CCc1cc2c(cc1-3)OCO2` [berberine sulfate], in the data set with mice, the “Protection from amphetamine toxicity” value was “no significant effect”. Further, in the data set with albino rats, the “Effect on rectal temperature” value is on record as “reduced rectal temperature”. For the same compound, the “Effect on the volume or acidity” value with rats [1] was “no effect”. The “Effect on blood pressure” value in the data set on rats [2], with dogs [3] and in the data set on cats was “reduced the blood pressure” each time. For the same compound, in the data set with S. pyogenes, the “Adherence of S. pyogenes to epithelial cells” value is recorded as “inhibited the adherence”. Further, in the data set with dogs [4], the “Number of apomorphine-induced vomits” value is given as “significantly increased”.
